What was measured:
[1] = test system: umbilical cord blood-derived CD34+ cells; test: in vitro megakaryocyte lineage differentiation of umbilical cord blood-derived CD34+ cells, flow cytometry; type: cell-based, human; conditions: 10 μM; cells collected at D14; FIG. 14
Procedure: (1) CD34^+ cells in umbilical cord blood were obtained by Ficoll-Paque PLUS density gradient centrifugation and magnetic bead sorting using CD34 MicroBead Kit. As to the particular steps, please refer to (GE Healthcare Life Sciences, http://www.gelifesciences.com), (Miltenyi Biotec, http://www.miltenyibiotec.com.cn).
(2) Differentiation of umbilical cord blood-derived CD34^+ cells into megakaryocytes: umbilical cord blood-derived CD34^+ cells were counted, and seeded at 1*10^6 cells to 4 ml StemSpan™ SFEM 11+50 ng/ml SCF+50 ng/ml TPO+50 ng/ml IL-6+20 ng/ml IL-3 in a 12-well plate, with 1 ml medium for each well, and four wells in total, to which 10 μM R04929097, 10 μM L-685458, 10 μM DAPT, and the same volume of DMSO as control were added, respectively, and the time was recorded as Day 0. The liquid was changed every 3 days, and the culture condition was 37° C., 5% CO2. After incubation for 6 days, the cell density was high, and the cells in each well were divided into two wells of a 12-well plate, with 2 ml medium for each well. The inhibitors were added at the same concnetrations as described above. The cells were collected at D14, counted, and detected for cell surface markers (CD41, CD42, CD61) by flow cytometer.
As to the collection of umbilical cord blood-derived CD34^+ cells, in vitro megakaryocytic differentiation and detection, please refer to Example 4-1.

[2] = test system: normal iPSC BC1; test: in vitro megakaryocyte lineage differentiation of iPSC BC1 (spin-EB), flow cytometry at Day 14; type: cell-based, human
Procedure: BC1 cell line was cultured in E8 medium, under the culture condition of 37° C., 5% CO2, and was passaged at (1:5)-(1:10) every 3-4 days depending on the concentration of cells. The cells were incubated in 0.5 mM EDTA, at room temperature for 2 min, and then were re-suspended and split up and down with E8 medium, and transferred to a culture dish that had been coated with Vitronectin one hour before.
During differentiation, spin-embryoid body (spin-EB) method was used (Ng E S, Davis R, Stanley E G, Elefanty A G, A protocol describing the use of a recombinant protein-based, animal product-free medium (APEL) for human embryonic stem cell differentiation as spin embryoid bodies, Nat Protoc. 2008; 3(5): 768-76.). At Day 0 (D0) after differentiation, iPSCs reached a confluence of above 85% (confluence refers to the percentage of the surface of a culture dish that is covered by adherent cells). After digestion with Accutase at 37° C. for 3 min, the cells were neutralized and split in SFM medium (50% IMDM, 50% Ham's F12, and the added reagents and factors including: human albumin, monothioglycerol, Glutamax, Chemically Defined Lipid Concentrate, L-Ascorbic acid 2-phosphate sesquimagnesium salt hydrate, ITS-X), counted, and centrifuged. After the cells were re-suspended in SFM, cytokines, i.e. 10 μM ROCK inhibitor (Rho-associated protein kinase inhibitor), 10 ng/ml bFGF, and 10 ng/ml BMP4, were added. Cells were seeded to a round-bottom 96-well plate, at 3000 or 5000 cells/50 μl for each well (3000 or 5000 cells were seeded to each well, in a volume of 50 μl for each well). At Day 2, 50 μl SFM medium+10 ng/ml bFGF+10 ng/ml BMP4+100 ng/ml SCF+20 ng/ml VEGF was added to each well. At Day 5, Day 8, and Day 11, 50 μl SFM medium+10 ng/ml bFGF+10 ng/ml BMP4+50 ng/ml SCF+10 ng/ml VEGF was added to each well, wherein 100 μl old medium was pipetted off at Day 8, and 10 ng/ml thrombopoietin (TPO) was added to each well at Day 11.
At Day 14 (D14), single cells (suspending cells) surrounding embryoid bodies (EBs) were collected. The cells were used in the following flow cytometry.
The cell surface markers (CD34, CD45, CD41, CD42) of the collected cells were detected by flow cytometer. The assay was as followed.
The detection was carried out in four tubes: the first tube was a negative tube that was not labeled with any flow antibody; the second tube was labelled with two antibodies CD34-APC and CD45-PE; the third tube was labeled with CD34-APC and CD41-PE; and the fourth tube was labeled with CD41-PE and CD42-APC, wherein CD34^+CD45^+represented the population of hematopoietic stem/progenitor cells (HSPCs), CD34^+CD41^+ represented the population of megakaryocyte progenitor cells (MKPs), and CD41^+CD42^+ represented the population of mature megakaryocytes (MKs).
(1) The BC1 cell line used was the same as the one used in Example 1, and was divided into three groups, wherein two 96-well plates were used for each group, and the cells were seeded at 5000 cells/50 μl to each well. In vitro differentiation was carried out by reference to the steps in Example 1, wherein the step of adding a drug was carried out in accordance with the following steps in I-III groups:
I. At Day 0 after differentiation, 10 μM RO4929097 was added, and DMSO was added to the control well.
III. At Day 2 after differentiation, 10 μM RO4929097, 10 μM L-685458, and 10 μM DAPT were added, respectively; in addition, at Day 5 after differentiation, 10 μM RO4929097, 10 μM L-685458, and 10 μM DAPT were added, respectively.
(2) The cells were collected for flow cytometry analysis, and as to the steps, please refer to the Example 1 above. […]
I. At Day 0 after differentiation, 10 μM RO4929097, and 10 μM DAPT were added, respectively.
II. At Day 2 after differentiation, 10 μM RO4929097, and 10 μM DAPT were added, respectively.
III. At Day 5 after differentiation, 10 μM RO4929097, and 10 μM DAPT were added, respectively.
IV. […]

CC(C)C[C@H](NC(=O)[C@H](Cc1ccccc1)C[C@@H](O)[C@H](Cc1ccccc1)NC(=O)OC(C)(C)C)C(=O)N[C@@H](Cc1ccccc1)C(N)=O [L-685458]
proportion of mature megakaryocyte (CD61+), increase vs control group [1]: 2.4 folds | proportion of mature megakaryocytes MK (CD41+CD42+) produced, increase vs control group [1]: 2.3 folds | increase of proportion of mature megakaryocytes produced vs DMSO control ([2]; 5 μM added at Day 2, FIG. 6): 21% | decrease of proportion of HSPCs (CD34+CD45+) vs DMSO control ([2]; 10 μM added at Day 2, FIG. 7A): 27% | proportion of MKPs (CD34+CD41+) produced, increased fold vs DMSO control (set as 1) ([2]; 10 μM added at Day 2, FIG. 7A): about 1.5 folds | proportion of mature megakaryocytes MKs (CD41+CD42+) produced, increased fold vs DMSO control (set as 1) ([2]; 10 μM added at Day 2, FIG. 7A): about 2.3 folds | proportion of HSPCs produced, increased fold vs DMSO control (set as 1) ([2]; 10 μM added at Day 5, FIG. 7B): about 1.5 folds | proportion of MKPs produced, increased fold vs DMSO control (set as 1) ([2]; 10 μM added at Day 5, FIG. 7B): about 1.2 folds | proportion of mature megakaryocytes MKs produced, increased fold vs DMSO control (set as 1) ([2]; 10 μM added at Day 5, FIG. 7B): about 3.8 folds | total number of hematopoietic cells, increase vs control group ([2]; 10 μM added at Day 5, FIG. 7B): 2.3 folds | production of megakaryocyte progenitor cells and/or mature megakaryocytes in vitro ([2]; screen in the in vitro differentiation system of stem cells): significantly promote
